These compounds were tested on HCC1143 (assay: normalised response (% of control), CellTiter-Glo; higher = more viable cells (100 = DMSO, 0 = benzethonium chloride kill control)). Settings: incubation time: 72 h.
Outline: (§1)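 Every value is a normalised signal taken at one concentration of a dilution series. Compound was placed in 384-well plates at 5 concentrations in 10-fold steps over a compound-specific 10,000-fold range, and 20 µl of breast cancer cell suspension was seeded onto it. After 72 h, CellTox Green fluorescence (485/520 nm) was measured first and CellTiter-Glo luminescence second, following 10 min at room temperature. Each plate was scaled to 0.1 % DMSO (100) and a positive kill control (0).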

SMILES	normalised response
Nc1nc(F)nc2c1ncn2[C@@H]1O[C@H](CO)[C@@H](O)[C@@H]1O [Fludarabine] (1000 nM)	106%
Nc1ccccc1NC(=O)c1ccc(CNC(=O)OCc2cccnc2)cc1 [Entinostat] (1000 nM)	98.1%
CNC(=O)c1cc(Oc2ccc(NC(=O)Nc3cc(C(C)(C)C)nn3-c3ccc4ncccc4c3)c(F)c2)ccn1 [Rebastinib] (100 nM)	110%
Cc1ccc(-c2cc(C(F)(F)F)nn2-c2ccc(S(N)(=O)=O)cc2)cc1 [Celecoxib] (1000 nM)	99.9%
CCN(CC)CCCC(C)Nc1c2ccc(Cl)cc2nc2ccc(OC)cc12 (stereo not given) [Mepacrine] (5000 nM)	98%
C=CC(=O)Nc1cc2c(Nc3ccc(F)c(Cl)c3)ncnc2cc1OCCCN1CCOCC1 [Canertinib] (1000 nM)	91.5%
C[C@H]1C[C@@H]2[C@H]([C@@H](O)C[C@@]3(C)[C@H]2CC[C@]3(O)C(=O)CO)[C@@]2(C)C=CC(=O)C=C12 [Methylprednisolone] (1000 nM)	109%
CC[C@H](Nc1ncnc2[nH]cnc12)c1nc2cccc(F)c2c(=O)n1-c1ccccc1 [GS-1101] (1000 nM)	84.9%
C=CC(=O)N1CCC[C@@H](n2nc(-c3ccc(Oc4ccccc4)cc3)c3c(N)ncnc32)C1 [Ibrutinib] (100 nM)	100%

Each compound was assayed on BT-549 in the same assay as above. Settings: incubation time: 72 h.
Outline: as §1

SMILES	normalised response
Nc1nc(F)nc2c1ncn2[C@@H]1O[C@H](CO)[C@@H](O)[C@@H]1O [Fludarabine] (1000 nM)	98.2%
Nc1ccccc1NC(=O)c1ccc(CNC(=O)OCc2cccnc2)cc1 [Entinostat] (1000 nM)	62.1%
CNC(=O)c1cc(Oc2ccc(NC(=O)Nc3cc(C(C)(C)C)nn3-c3ccc4ncccc4c3)c(F)c2)ccn1 [Rebastinib] (100 nM)	111%
Cc1ccc(-c2cc(C(F)(F)F)nn2-c2ccc(S(N)(=O)=O)cc2)cc1 [Celecoxib] (1000 nM)	107%
CCN(CC)CCCC(C)Nc1c2ccc(Cl)cc2nc2ccc(OC)cc12 (stereo not given) [Mepacrine] (5000 nM)	93%
C=CC(=O)Nc1cc2c(Nc3ccc(F)c(Cl)c3)ncnc2cc1OCCCN1CCOCC1 [Canertinib] (1000 nM)	80.1%
C[C@H]1C[C@@H]2[C@H]([C@@H](O)C[C@@]3(C)[C@H]2CC[C@]3(O)C(=O)CO)[C@@]2(C)C=CC(=O)C=C12 [Methylprednisolone] (1000 nM)	100%
CC[C@H](Nc1ncnc2[nH]cnc12)c1nc2cccc(F)c2c(=O)n1-c1ccccc1 [GS-1101] (1000 nM)	82.8%
C=CC(=O)N1CCC[C@@H](n2nc(-c3ccc(Oc4ccccc4)cc3)c3c(N)ncnc32)C1 [Ibrutinib] (100 nM)	111%

The compounds below were run on HDQ-P1 in the same assay as above. Settings: incubation time: 72 h.
Outline: as §1

SMILES	normalised response
Nc1nc(F)nc2c1ncn2[C@@H]1O[C@H](CO)[C@@H](O)[C@@H]1O [Fludarabine] (1000 nM)	102%
Nc1ccccc1NC(=O)c1ccc(CNC(=O)OCc2cccnc2)cc1 [Entinostat] (1000 nM)	93.5%
CNC(=O)c1cc(Oc2ccc(NC(=O)Nc3cc(C(C)(C)C)nn3-c3ccc4ncccc4c3)c(F)c2)ccn1 [Rebastinib] (100 nM)	114%
Cc1ccc(-c2cc(C(F)(F)F)nn2-c2ccc(S(N)(=O)=O)cc2)cc1 [Celecoxib] (1000 nM)	100%
CCN(CC)CCCC(C)Nc1c2ccc(Cl)cc2nc2ccc(OC)cc12 (stereo not given) [Mepacrine] (5000 nM)	112%
C=CC(=O)Nc1cc2c(Nc3ccc(F)c(Cl)c3)ncnc2cc1OCCCN1CCOCC1 [Canertinib] (1000 nM)	67.4%
C[C@H]1C[C@@H]2[C@H]([C@@H](O)C[C@@]3(C)[C@H]2CC[C@]3(O)C(=O)CO)[C@@]2(C)C=CC(=O)C=C12 [Methylprednisolone] (1000 nM)	83.2%
CC[C@H](Nc1ncnc2[nH]cnc12)c1nc2cccc(F)c2c(=O)n1-c1ccccc1 [GS-1101] (1000 nM)	87.7%
C=CC(=O)N1CCC[C@@H](n2nc(-c3ccc(Oc4ccccc4)cc3)c3c(N)ncnc32)C1 [Ibrutinib] (100 nM)	82.5%

What follows are compounds tested on CAL-120 in the same assay as above. Settings: incubation time: 72 h.
Outline: as §1

SMILES	normalised response
Nc1nc(F)nc2c1ncn2[C@@H]1O[C@H](CO)[C@@H](O)[C@@H]1O [Fludarabine] (1000 nM)	97.8%
Nc1ccccc1NC(=O)c1ccc(CNC(=O)OCc2cccnc2)cc1 [Entinostat] (1000 nM)	97%
CNC(=O)c1cc(Oc2ccc(NC(=O)Nc3cc(C(C)(C)C)nn3-c3ccc4ncccc4c3)c(F)c2)ccn1 [Rebastinib] (100 nM)	92.2%
Cc1ccc(-c2cc(C(F)(F)F)nn2-c2ccc(S(N)(=O)=O)cc2)cc1 [Celecoxib] (1000 nM)	98.1%
CCN(CC)CCCC(C)Nc1c2ccc(Cl)cc2nc2ccc(OC)cc12 (stereo not given) [Mepacrine] (5000 nM)	110%
C=CC(=O)Nc1cc2c(Nc3ccc(F)c(Cl)c3)ncnc2cc1OCCCN1CCOCC1 [Canertinib] (1000 nM)	94.2%
C[C@H]1C[C@@H]2[C@H]([C@@H](O)C[C@@]3(C)[C@H]2CC[C@]3(O)C(=O)CO)[C@@]2(C)C=CC(=O)C=C12 [Methylprednisolone] (1000 nM)	80.5%
CC[C@H](Nc1ncnc2[nH]cnc12)c1nc2cccc(F)c2c(=O)n1-c1ccccc1 [GS-1101] (1000 nM)	89.9%
C=CC(=O)N1CCC[C@@H](n2nc(-c3ccc(Oc4ccccc4)cc3)c3c(N)ncnc32)C1 [Ibrutinib] (100 nM)	96.2%

These compounds were tested on HCC1599 in the same assay as above. Settings: incubation time: 72 h.
Outline: as §1

SMILES	normalised response
Nc1nc(F)nc2c1ncn2[C@@H]1O[C@H](CO)[C@@H](O)[C@@H]1O [Fludarabine] (1000 nM)	108%
Nc1ccccc1NC(=O)c1ccc(CNC(=O)OCc2cccnc2)cc1 [Entinostat] (1000 nM)	83.6%
CNC(=O)c1cc(Oc2ccc(NC(=O)Nc3cc(C(C)(C)C)nn3-c3ccc4ncccc4c3)c(F)c2)ccn1 [Rebastinib] (100 nM)	110%
Cc1ccc(-c2cc(C(F)(F)F)nn2-c2ccc(S(N)(=O)=O)cc2)cc1 [Celecoxib] (1000 nM)	99.6%
CCN(CC)CCCC(C)Nc1c2ccc(Cl)cc2nc2ccc(OC)cc12 (stereo not given) [Mepacrine] (5000 nM)	101%
C=CC(=O)Nc1cc2c(Nc3ccc(F)c(Cl)c3)ncnc2cc1OCCCN1CCOCC1 [Canertinib] (1000 nM)	81.2%
C[C@H]1C[C@@H]2[C@H]([C@@H](O)C[C@@]3(C)[C@H]2CC[C@]3(O)C(=O)CO)[C@@]2(C)C=CC(=O)C=C12 [Methylprednisolone] (1000 nM)	105%
CC[C@H](Nc1ncnc2[nH]cnc12)c1nc2cccc(F)c2c(=O)n1-c1ccccc1 [GS-1101] (1000 nM)	110%
C=CC(=O)N1CCC[C@@H](n2nc(-c3ccc(Oc4ccccc4)cc3)c3c(N)ncnc32)C1 [Ibrutinib] (100 nM)	118%

The compounds below were run on MDA-MB-468 in the same assay as above. Settings: incubation time: 72 h.
Outline: as §1

SMILES	normalised response
Nc1nc(F)nc2c1ncn2[C@@H]1O[C@H](CO)[C@@H](O)[C@@H]1O [Fludarabine] (1000 nM)	102%
Nc1ccccc1NC(=O)c1ccc(CNC(=O)OCc2cccnc2)cc1 [Entinostat] (1000 nM)	91.4%
CNC(=O)c1cc(Oc2ccc(NC(=O)Nc3cc(C(C)(C)C)nn3-c3ccc4ncccc4c3)c(F)c2)ccn1 [Rebastinib] (100 nM)	113%
Cc1ccc(-c2cc(C(F)(F)F)nn2-c2ccc(S(N)(=O)=O)cc2)cc1 [Celecoxib] (1000 nM)	99.8%
CCN(CC)CCCC(C)Nc1c2ccc(Cl)cc2nc2ccc(OC)cc12 (stereo not given) [Mepacrine] (5000 nM)	94.4%
C=CC(=O)Nc1cc2c(Nc3ccc(F)c(Cl)c3)ncnc2cc1OCCCN1CCOCC1 [Canertinib] (1000 nM)	62%
C[C@H]1C[C@@H]2[C@H]([C@@H](O)C[C@@]3(C)[C@H]2CC[C@]3(O)C(=O)CO)[C@@]2(C)C=CC(=O)C=C12 [Methylprednisolone] (1000 nM)	119%
CC[C@H](Nc1ncnc2[nH]cnc12)c1nc2cccc(F)c2c(=O)n1-c1ccccc1 [GS-1101] (1000 nM)	86.9%
C=CC(=O)N1CCC[C@@H](n2nc(-c3ccc(Oc4ccccc4)cc3)c3c(N)ncnc32)C1 [Ibrutinib] (100 nM)	93.1%

The compounds below were run on CAL-51 in the same assay as above. Settings: incubation time: 72 h.
Outline: as §1

SMILES	normalised response
Nc1nc(F)nc2c1ncn2[C@@H]1O[C@H](CO)[C@@H](O)[C@@H]1O [Fludarabine] (1000 nM)	131%
Nc1ccccc1NC(=O)c1ccc(CNC(=O)OCc2cccnc2)cc1 [Entinostat] (1000 nM)	45.2%
CNC(=O)c1cc(Oc2ccc(NC(=O)Nc3cc(C(C)(C)C)nn3-c3ccc4ncccc4c3)c(F)c2)ccn1 [Rebastinib] (100 nM)	120%
Cc1ccc(-c2cc(C(F)(F)F)nn2-c2ccc(S(N)(=O)=O)cc2)cc1 [Celecoxib] (1000 nM)	118%
CCN(CC)CCCC(C)Nc1c2ccc(Cl)cc2nc2ccc(OC)cc12 (stereo not given) [Mepacrine] (5000 nM)	113%
C=CC(=O)Nc1cc2c(Nc3ccc(F)c(Cl)c3)ncnc2cc1OCCCN1CCOCC1 [Canertinib] (1000 nM)	62.2%
C[C@H]1C[C@@H]2[C@H]([C@@H](O)C[C@@]3(C)[C@H]2CC[C@]3(O)C(=O)CO)[C@@]2(C)C=CC(=O)C=C12 [Methylprednisolone] (1000 nM)	108%
CC[C@H](Nc1ncnc2[nH]cnc12)c1nc2cccc(F)c2c(=O)n1-c1ccccc1 [GS-1101] (1000 nM)	97.3%
C=CC(=O)N1CCC[C@@H](n2nc(-c3ccc(Oc4ccccc4)cc3)c3c(N)ncnc32)C1 [Ibrutinib] (100 nM)	73.1%

What follows are compounds tested on MDA-MB-231 in the same assay as above. Settings: incubation time: 72 h.
Outline: as §1

SMILES	normalised response
Nc1nc(F)nc2c1ncn2[C@@H]1O[C@H](CO)[C@@H](O)[C@@H]1O [Fludarabine] (1000 nM)	108%
Nc1ccccc1NC(=O)c1ccc(CNC(=O)OCc2cccnc2)cc1 [Entinostat] (1000 nM)	93.2%
CNC(=O)c1cc(Oc2ccc(NC(=O)Nc3cc(C(C)(C)C)nn3-c3ccc4ncccc4c3)c(F)c2)ccn1 [Rebastinib] (100 nM)	90%
Cc1ccc(-c2cc(C(F)(F)F)nn2-c2ccc(S(N)(=O)=O)cc2)cc1 [Celecoxib] (1000 nM)	96.4%
CCN(CC)CCCC(C)Nc1c2ccc(Cl)cc2nc2ccc(OC)cc12 (stereo not given) [Mepacrine] (5000 nM)	98.1%
C=CC(=O)Nc1cc2c(Nc3ccc(F)c(Cl)c3)ncnc2cc1OCCCN1CCOCC1 [Canertinib] (1000 nM)	78%
C[C@H]1C[C@@H]2[C@H]([C@@H](O)C[C@@]3(C)[C@H]2CC[C@]3(O)C(=O)CO)[C@@]2(C)C=CC(=O)C=C12 [Methylprednisolone] (1000 nM)	159%
CC[C@H](Nc1ncnc2[nH]cnc12)c1nc2cccc(F)c2c(=O)n1-c1ccccc1 [GS-1101] (1000 nM)	85.5%
C=CC(=O)N1CCC[C@@H](n2nc(-c3ccc(Oc4ccccc4)cc3)c3c(N)ncnc32)C1 [Ibrutinib] (100 nM)	105%

These compounds were tested on MDA-MB-436 in the same assay as above. Settings: incubation time: 72 h.
Outline: as §1

SMILES	normalised response
Nc1nc(F)nc2c1ncn2[C@@H]1O[C@H](CO)[C@@H](O)[C@@H]1O [Fludarabine] (1000 nM)	102%
Nc1ccccc1NC(=O)c1ccc(CNC(=O)OCc2cccnc2)cc1 [Entinostat] (1000 nM)	90.5%
CNC(=O)c1cc(Oc2ccc(NC(=O)Nc3cc(C(C)(C)C)nn3-c3ccc4ncccc4c3)c(F)c2)ccn1 [Rebastinib] (100 nM)	110%
Cc1ccc(-c2cc(C(F)(F)F)nn2-c2ccc(S(N)(=O)=O)cc2)cc1 [Celecoxib] (1000 nM)	101%
CCN(CC)CCCC(C)Nc1c2ccc(Cl)cc2nc2ccc(OC)cc12 (stereo not given) [Mepacrine] (5000 nM)	103%
C=CC(=O)Nc1cc2c(Nc3ccc(F)c(Cl)c3)ncnc2cc1OCCCN1CCOCC1 [Canertinib] (1000 nM)	90.5%
C[C@H]1C[C@@H]2[C@H]([C@@H](O)C[C@@]3(C)[C@H]2CC[C@]3(O)C(=O)CO)[C@@]2(C)C=CC(=O)C=C12 [Methylprednisolone] (1000 nM)	105%
CC[C@H](Nc1ncnc2[nH]cnc12)c1nc2cccc(F)c2c(=O)n1-c1ccccc1 [GS-1101] (1000 nM)	85.3%
